Assay results: patent US20250026725A1, “HYDRATE CRYSTAL OF 5-CHLORO-4-(3-CHLORO-4- METHYLPHENYL)-1H-IMIDAZOLE-2-CARBONITRILE” (ISHIHARA SANGYO KAISHA, LTD., priority 2021, published 2025)
Values after ≈ are worked out from the molar mass of the structure shown. Read-outs that look alike come from different tables or passages of the source.

What was measured:
Type in all cases: cell-based
[1] = tested on: Microsporum canis (IFM63627); assay: Antifungal activity test, minimum fungicidal concentration (MFC100) on spores by treatment time; details: read-out: Minimal fungicidal concentration (MFC100)
Description: Microsporum canis was cultured on a 1/10 Sabouraud medium at 32° C. for 168 hours to form spores. Then, 10 mL of physiological saline solution (OTSUKA NORMAL SALINE; containing the equivalent of 9 g of sodium chloride in 1000 mL) was directly added over the medium, and the surface was scraped with a disposable loop (Type 1 (1 μL) to collect a spore suspension containing mycelia. The spore suspension containing mycelia was filtered through a cell strainer ((40 μm). Spores were collected from a filtrate by centrifugation (3500 rpm, 5 minutes), and washed twice with physiological saline to prepare a spore suspension (1×10^7 cells/mL). 10 μL of the spore suspension was inoculated into 90 μL of physiological saline solution to which the compound under test dissolved in DMSO was added so as to have a predetermined concentration. Every time a predetermined time lapsed, 10 μL of a test solution containing spores was taken out. Spores were collected from the test solution thus taken out by centrifugation (3500 rpm, 5 minutes), and washed twice with physiological saline to prepare 10 μL of spore suspension. […]
A minimum fungicidal concentration (MFC100) for Microsporum canis (IMF63627) was determined in the same method as in Test Example 8 except that the hydrate crystal (Production Example 2) was used as the compound under test.

[2] = tested on: Staphylococcus pseudintermedius (JCM 17571); assay: Antimicrobial activity test, minimum bactericidal concentration (MBC100); details: JCM17571, S. pseudintermedius, 1 minute contact, then culture at 30° C. for 72 hours
Description: Staphylococcus pseudintermedius that had been cultured on a Luria Broth (LB) agar medium plate (peptone, yeast extract, sodium chloride, agar, from Invitrogen) for 24 hours was suspended in physiological saline to prepare so as to have an absorbance of 0.025 at 600 nm. The compound under test dissolved in DMSO was added thereto so as to have final concentrations of 200, 100, 50, and 25 ppm, and 1 minute later, 10 μL of suspension and 10 mL of physiological saline were added to a syringe and stirred. After that, the mixture was filtered by connecting to a 37 mm quality monitor (manufactured by Pall Corporation) and washed twice with 10 ml of physiological saline. As such, membrane filters were permeated with an LB medium, culturing was performed at 30° C. for 72 hours, the presence or absence of the development of colonies was examined to determine a minimum bactericidal concentration (MBC100). A minimum bactericidal concentration (MBC100) for Staphylococcus pseudintermedius (JCM 17571) was determined in the same method as in Test Example 6 except that the hydrate crystal (Production Example 2) was used as the compound under test.

[3] = tested on: Trichophyton rubrum (ATCCMYA4607); assay: Antifungal activity test, minimum fungicidal concentration (MFC100) on spores by treatment time; details: read-out: Minimal fungicidal concentration (MFC100)
Description: Trichophyton rubrum was cultured on a Sabouraud medium at 32° C. for 168 hours to form spores. Mycelia were peeled from a medium surface and collected into a tube, physiological saline solution (OTSUKA NORMAL SALINE; containing the equivalent of 9 g of sodium chloride in 1000 mL) was added thereto, and the entire mixture was mixed and dispersed with a disposable loop (Type 1 (1 μL)) to collect a spore suspension containing mycelia. The spore suspension containing mycelia was filtered through a cell strainer (+40 μm). Spores were collected from a filtrate by centrifugation (3500 rpm, 5 minutes), and washed twice with physiological saline to prepare a spore suspension (1×10^7 cells/mL). 10 μL of the spore suspension was inoculated into 90 μL of physiological saline solution to which the test compound dissolved in DMSO was added so as to have a predetermined concentration. Every time a predetermined time lapsed, 10 μL of a test solution containing spores was taken out. Spores were collected from the test solution thus taken out by centrifugation (3500 rpm, 5 minutes), and washed twice with physiological saline to prepare 10 μL of spore suspension. 10 μL of spore suspension was spotted on the Sabouraud medium and cultured at 32° C. for 72 hours, and then the presence or absence of the development of colonies was examined to determine a minimum fungicidal concentration (MFC100).
A minimum inhibitory concentration (MIC100) for Trichophyton rubrum (ATCCMYA4607) was determined in the same method as in Test Example 13 except that the hydrate crystal (Production Example 2) was used as the compound under test.

[4] = tested on: Malassezia furfur (IFM 55951); assay: Antifungal activity test, minimum fungicidal concentration (MFC100); details: 1 minute contact, culture 32° C. for 72 hours, read-out: Minimal fungicidal concentration (MFC100)
Description: (§1) Fungi of Malassezia (Malassezia furfur, Malassezia sympodialis, and Malassezia globosa) that had been cultured on a CHROMagar (trademark) Malassezia/Candida raw medium (peptone, specialized enzyme-substrate mixture, chloramphenicol, olive oil, agar, manufactured by KANTO CHEMICAL CO., INC.) for 5 to 7 days was suspended in physiological saline to prepare so as to have an absorbance of 0.025 at 600 nm. The compound under test dissolved in DMSO was added thereto so as to have final concentrations of 200, 100, 50, and 25 ppm. 1 minute later, 10 μL of suspension and 10 mL of physiological saline were added to a syringe and stirred, and then the mixture was filtered by connecting to a 37 mm quality monitor (manufactured by Pall Corporation) and washed twice with 10 ml of physiological saline. The membrane filters were removed from the quality monitor, and placed and cultured on the CHROMagar (trademark) Malassezia/Candida raw medium at 32° C. for 72 hours, and the presence or absence of the development of colonies was examined to determine a minimum fungicidal concentration (MFC100). Minimum fungicidal concentrations (MFC100) for Malassezia furfur (IFM 55951), Malassezia sympodialis (IFM 48588), and Malassezia globosa (IFM 51946) were determined in the same method as in Test Example 10 except that the hydrate crystal (Production Example 2) was used as the compound under test.

[5] = tested on: Malassezia globosa (IFM 51946); assay: as above; details: 1 minute contact, culture 32° C. for 72 hours, read-out: Minimal fungicidal concentration (MFC100)
Description: as §1

[6] = tested on: Malassezia sympodialis (IFM 48588); assay: as above; details: 1 minute contact, culture 32° C. for 72 hours, read-out: Minimal fungicidal concentration (MFC100)
Description: as §1

Cc1ccc(-c2nc(C#N)[nH]c2Cl)cc1Cl [Anhydrous crystal, 5-chloro-4-(3-chloro-4-methylphenyl)-1H-imidazole-2-carbonitrile]
MFC ([1]; treatment time 24 hours): 50 µg/mL (≈ 198 µM) | MFC ([1]; treatment time 96 hours): 10 µg/mL (≈ 39.7 µM) | MBC [2]: 50 µg/mL (≈ 198 µM) | MFC ([3]; treatment time 1 hour): 50 µg/mL (≈ 198 µM) | MFC ([3]; treatment time 48 hours): 10 µg/mL (≈ 39.7 µM) | MFC ([3]; treatment time 72 hours): 5 µg/mL (≈ 19.8 µM) | MFC [4]: 50 µg/mL (≈ 198 µM) | MFC [5]: 50 µg/mL (≈ 198 µM) | MFC [6]: 50 µg/mL (≈ 198 µM)
